Experimental data as given in article PMC9878345 (Frontiers in Chemistry, 2023).

Target: SARS-CoV-2 PLpro (Severe acute respiratory syndrome coronavirus 2, UniProt P0DTD1)
Test: biochemical
Format: biochemical
Conditions: concentration not stated

| SMILES | inhibition activity in SARS-CoV-2 PLpro enzymatic activity |
| --- | --- |
| C[C@@H]1O[C@@H](OC[C@H]2O[C@@H](Oc3c(-c4ccc(O)c(O)c4)oc4cc(O)cc(O)c4c3=O)[C@H](O)[C@@H](O)[C@@H]2O)[C@H](O)[C@H](O)[C@H]1O [rutin] | more than 50% |
| C/C=C1/[C@H](O[C@@H]2O[C@H](CO)[C@@H](O)[C@H](O)[C@H]2O)OC=C(C(=O)OC)[C@H]1CC(=O)OCCc1ccc(O)c(O)c1 [oleuropein] | more than 50% |
| O=c1c2cc(O)c(O)cc2oc2cc(O)c([C@@H]3O[C@H](CO)[C@@H](O)[C@H](O)[C@H]3O)c(O)c12 [mangiferin, 2-β-D-glucopyranosyl-1,3,6,7-tetrahydroxy-9H-xanthan-9-one] | more than 50% |
